This is an account of results in ChEMBL document CHEMBL4673396, “Structural Basis for Targeting the Folded P-Loop Conformation of c-MET” (ACS Med Chem Lett, 2021).

The data set is described as follows: Lipophilicity, logD of the compound in octanol and water at pH 7.4 by shake-flask method. It counts as physicochemical.
What is called logD is lipophilicity at a set pH, counting ionised and neutral species. The compound `O=C1NCc2c(-c3cnc4[nH]cc(Cc5ccccc5)c4c3)c[nH]c21` registered a logD of 4.

With `Fc1cccc(Cc2c[nH]c3ncc(-c4cnn(C5CCNCC5)c4)cc23)c1`, the logD amounted to 2.4.

As for `c1ccc(Cc2c[nH]c3ncc(-c4cnn(C5CCNCC5)c4)cc23)cc1`, the logD turned out to be 2.31.

As for `Fc1ccc(Cc2c[nH]c3ncc(-c4cnn(C5CCNCC5)c4)cc23)cc1`, the logD stood at 2.4.

In the case of `Fc1ccccc1Cc1c[nH]c2ncc(-c3cnn(C4CCNCC4)c3)cc12`, the logD is 2.5.
